Test results as given in patent publication US9889183B2, “PKC activators and anticoagulant in regimen for treating stroke” (BLANCHETTE ROCKEFELLER NEUROSCIENCES INSTITUTE, priority 2010, dated 2018).

Assays:
[1] = test system: ischemic stroke (middle cerebral artery occlusion) in rats; assay: Focal ischemia (MCAO) model of stroke; assay type: in vivo, rat
Procedure: A transient animal model of focal ischemia was used for these experiments. The middle cerebral artery (MCA) was surgically dissected and occluded in anesthetized rats by ligature, followed by reperfusion after a defined period (about 2 hours). Animal models transient ischemia via occlusion of the MCA (MCAO) are well-known and described in, e.g., Sicard and Fisher, Exp. & Transl. Stroke Med. (2009), vol. 1, pp. 1-7.

[2] = test system: PKC in H19-7/IGF-IR cells; assay: PKC activity over time in rat H19-7/IGF-IR hippocampal cells; assay type: cell-based
Procedure: (§1) Cell culture. Rat hippocampal H19-7/IGF-IR cells (ATCC, Manassas, Va.) were plated onto poly-L-lysine coated plates and grown at 35° C. in DMEM/10% FCS for several days until about 50% coverage was obtained. The cells were then induced to differentiate into a neuronal phenotype by replacing the medium with 5 ml N2 medium containing 10 ng/ml basic fibroblast growth factor at 39° C. and grown in T-75 flasks at 37° C. Human SH-SY5Y neuroblastoma cells (ATCC) were cultured in 45% F12K/45% MEM/10% FCS. Mouse N2A neuroblastoma cells were cultured in DMEM/10% FCS without glutamine. Rat hippocampal neurons from 18-day-old embryonic Sprague Dawley rat brains were plated on 12- or 96-well plates coated with poly-D-lysine (Sigma-Aldrich, St. Louis, Mo.) in B-27 neurobasal medium containing 0.5 mM glutamine and 25 μM glutamate (Invitrogen, Carlsbad, Calif.) and cultured for three days in the medium without glutamate. The neuronal cells were grown under 5% CO2 in an incubator maintained at 37° C. for 14 days.
(§2) Protein kinase C assay. Rat hippocampal cells were cultured and scraped in 0.2 ml homogenization buffer (20 mM Tris-HCl, pH 7.4, 50 mM NaF, 1 μg/ml leupeptin, and 0.1 mM PMSF) and homogenized by sonication a Marsonix microprobe sonicator (5 sec, 10 W). To measure PKC, 10 μl of cell homogenate or purified PKC isozyme (purchased from Calbiochem) was incubated for 15 min at 37° C. in the presence of 10 μM histones, 4.89 mM CaCl2, 1.2 μg/μl phosphatidyl-L-serine, 0.18 μg/μl 1,2-dioctanoyl-sn-glycerol, 10 mM MgCl2, 20 mM HEPES (pH 7.4), 0.8 mM EDTA, 4 mM EGTA, 4% glycerol, 8 μg/ml aprotinin, 8 μg/ml leupeptin, and 2 mM benzamidine. […][^γ32P]ATP was added and ^32P-phosphoprotein formation was measured by adsorption onto phosphocellulose as described previously. Nelson and Alkon, J. Neurochemistry (1995), vol. 65, pp. 2350-2357. For measurements of activation by BR-101 (DCP-LA) and similar compounds. PKC activity was measured in the absence of diacylglycerol and phosphatidylserine and PKC δ, ε, η, and μ were measured in the absence of added EGTA and CaCl2, as described by Kanno et al. (J. Lipid Res. 2006, vol. 47, pp. 1146-1150). Low concentrations of Ca^2+ are used because high Ca^2+ interacts with the PKC phosphatidylserine binding site and prevents activation. For measurements of bryostatin activation, 1,2-diacylglycerol was omitted unless otherwise stated.
PKC activators that bind to the diacylglycerol binding site, including bryostatin, gnidimacrin, and phorbol esters, produce a transient activation of PKC activity, followed by a prolonged downregulation. Nelson et al., Trends in Biochem. Sci. (2009), vol. 34, pp. 136-145. This was confirmed in cultured rat hippocampal cells. Incubation of rat H19-7/IGF-IR cells with (0.04 nM and 0.2 nM) bryostatin produced a 2-fold activation that lasted 30 min, followed by a 20% downregulation that returned to baseline by 24 hours (data not shown). […] This sustained activation was only observed in primary neurons.

α-secretase = conditions: 10 pM; human fibroblasts; cited from earlier work
other PKC isoforms = assay: PKC isozyme specificity, other PKC isoforms; assay type: biochemical; conditions: data not shown
Procedure: as §2, with “Low concentrations of Ca^2+ are used because high Ca^2+ interacts with the PKC phosphatidylserine binding site and prevents activation. For measurements of bryostatin activation, 1,2-diacylglycerol was omitted unless otherwise stated.” left out
(§3) To determine their PKC isozyme specificity, fatty acid derivatives were preincubated with purified PKC for five minutes and the PKC activity was measured radiometrically.

PKCδ = target: T1, PKCδ (Homo sapiens, UniProt Q05655); assay: PKC isozyme specificity, PKCδ; assay type: biochemical; conditions: about 1-100 μM; data not shown
T1 construct: purchased Calbiochem
Procedure: as §2, with “Low concentrations of Ca^2+ are used because high Ca^2+ interacts with the PKC phosphatidylserine binding site and prevents activation. For measurements of bryostatin activation, 1,2-diacylglycerol was omitted unless otherwise stated.” left out
as §3

PKCγ = target: T2, PKCγ (Homo sapiens, UniProt P05129); assay: PKC isozyme specificity, PKCγ; assay type: biochemical; conditions: 50-100 μM; data not shown
T2 construct: purchased Calbiochem
Procedure: as §2, with “Low concentrations of Ca^2+ are used because high Ca^2+ interacts with the PKC phosphatidylserine binding site and prevents activation. For measurements of bryostatin activation, 1,2-diacylglycerol was omitted unless otherwise stated.” left out
as §3

PKC in primary neurons = assay: PKC activity over time in rat hippocampal primary neurons; assay type: cell-based; conditions: only observed in primary neurons
Procedure: as §1
Protein kinase C assay. […] 0.5 Ci[^γ32P]ATP was added and ^32P-phosphoprotein formation was measured by adsorption onto phosphocellulose as described previously. […] PKC activity was measured in the absence of diacylglycerol and phosphatidylserine and PKC δ, ε, η, and μ were measured in the absence of added EGTA and CaCl2, as described by Kanno et al. (J. Lipid Res. 2006, vol. 47, pp. 1146-1150). […]

PKCε = target: T3, PKCε (Homo sapiens, UniProt Q02156); conditions: cited from earlier work
T3 construct: purchased Calbiochem
T3 sequence (Q02156 1-737): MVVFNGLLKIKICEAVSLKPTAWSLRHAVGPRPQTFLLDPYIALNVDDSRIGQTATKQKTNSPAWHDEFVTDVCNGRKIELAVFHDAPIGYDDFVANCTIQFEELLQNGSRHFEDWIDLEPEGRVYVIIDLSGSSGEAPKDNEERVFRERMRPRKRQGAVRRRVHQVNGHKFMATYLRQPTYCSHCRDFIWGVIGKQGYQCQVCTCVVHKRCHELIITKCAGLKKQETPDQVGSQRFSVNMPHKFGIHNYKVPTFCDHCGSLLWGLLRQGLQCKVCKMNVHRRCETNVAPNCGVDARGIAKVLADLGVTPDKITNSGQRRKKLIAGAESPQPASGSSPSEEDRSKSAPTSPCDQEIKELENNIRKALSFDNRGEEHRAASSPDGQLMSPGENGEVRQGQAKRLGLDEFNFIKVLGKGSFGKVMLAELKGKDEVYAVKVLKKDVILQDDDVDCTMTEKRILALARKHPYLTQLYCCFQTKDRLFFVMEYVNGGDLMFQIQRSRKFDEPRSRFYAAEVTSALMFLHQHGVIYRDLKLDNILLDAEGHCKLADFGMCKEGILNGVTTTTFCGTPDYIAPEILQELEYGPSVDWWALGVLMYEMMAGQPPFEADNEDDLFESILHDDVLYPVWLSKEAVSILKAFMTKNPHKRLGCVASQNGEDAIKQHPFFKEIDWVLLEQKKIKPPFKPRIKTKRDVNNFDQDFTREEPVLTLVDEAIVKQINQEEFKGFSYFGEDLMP

[3] = rTPA at 2 hours followed 6 hours later with bryostatin-1, vs rTPA alone

T1 sequence (Q05655 whole entry): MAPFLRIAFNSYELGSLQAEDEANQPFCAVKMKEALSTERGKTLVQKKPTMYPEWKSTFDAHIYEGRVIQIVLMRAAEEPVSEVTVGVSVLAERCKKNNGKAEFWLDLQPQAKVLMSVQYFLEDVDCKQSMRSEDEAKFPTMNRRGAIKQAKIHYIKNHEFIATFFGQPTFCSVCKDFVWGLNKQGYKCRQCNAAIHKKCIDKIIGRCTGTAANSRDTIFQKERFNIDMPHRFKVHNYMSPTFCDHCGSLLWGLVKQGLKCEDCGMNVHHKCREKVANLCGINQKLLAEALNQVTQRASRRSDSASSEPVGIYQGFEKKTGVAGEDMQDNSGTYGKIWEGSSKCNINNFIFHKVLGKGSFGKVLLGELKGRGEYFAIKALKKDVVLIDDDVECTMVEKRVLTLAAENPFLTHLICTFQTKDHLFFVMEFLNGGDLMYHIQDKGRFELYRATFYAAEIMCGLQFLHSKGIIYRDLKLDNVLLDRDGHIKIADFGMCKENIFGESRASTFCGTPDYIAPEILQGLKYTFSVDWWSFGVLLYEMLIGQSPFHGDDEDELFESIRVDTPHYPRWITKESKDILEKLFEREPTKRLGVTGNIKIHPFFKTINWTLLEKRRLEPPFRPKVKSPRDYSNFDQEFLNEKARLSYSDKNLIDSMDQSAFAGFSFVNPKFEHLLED

| Compound | brain edema ([1]; bryostatin-1 2 hours after stroke, rTPA 6 hours later, vs rTPA alone) | reduction of assayed hemoglobin in the cortex and striatum ([1]; bryostatin-1 2 hours after stroke, rTPA 6 hours later, vs rTPA at 6 hours alone) | mortality 24 hours later ([1]; rTPA 6 hours after the stroke, followed 2 hours later with bryostatin-1, rats) | uptake of Evans Blue dye in ipsilateral and contralateral cortices (BBB permeability) [1, 3] | uptake of NaF in ipsilateral and contralateral cortices [1, 3] | PKC downregulation following activation ([2]; 0.04 nM and 0.2 nM) | duration of PKC activation ([2]; 0.04 nM and 0.2 nM) | time of return of PKC to baseline ([2]; 0.04 nM and 0.2 nM) | PKC activation ([2]; 0.04 nM and 0.2 nM, H19-7/IGF-IR cells) | PKC activity at 8 hours (downregulation) ([2]; treated cells, 8 hours, data not shown) | increase of initial rate of α-secretase activity (α-secretase) | effects on the other PKC isoforms (other PKC isoforms) | effect on PKCδ (PKCδ) | effect on PKCγ (PKCγ) | time PKC remained elevated (PKC in primary neurons) | concentration of maximal effect, selective PKCε activation (PKCε) |
| --- | --- | --- | --- | --- | --- | --- | --- | --- | --- | --- | --- | --- | --- | --- | --- | --- |
| CCC/C=C/C=C/C(=O)O[C@H]1/C(=C/C(=O)OC)C[C@H]2C[C@H]([C@@H](C)O)OC(=O)C[C@H](O)C[C@@H]3C[C@H](OC(C)=O)C(C)(C)[C@](O)(C[C@@H]4C/C(=C/C(=O)OC)C[C@H](/C=C/C(C)(C)[C@]1(O)O2)O4)O3 [Bryostatin-1, bryostatin-1] | significantly reduced | 50% | 0% | significantly reduced | reduced | 20% | 30 min | ≤ 24 h | 2 fold | at or near the baseline | 16 fold |  |  |  |  |  |
| CCCCCC1CC1CC1CC1CCCCCCCC(=O)O (stereo not shown) [BR-101, 2-[(2-pentylcyclopropyl)methyl]cyclopropaneoctanoic acid] |  |  |  |  |  |  |  |  |  |  |  | relatively small effects | partially inhibited | activated | at least four | 100 nM |
